Values after ≈ are worked out from the molar mass of the structure shown.
Key:
Format in all cases: functional
Staphylococcus aureus [1] = assay: Bactericidal activity against Staphylococcus aureus clinical isolate 7 after 24 hr; details: isolate 7, 24 h
Staphylococcus aureus [2] = assay: Bactericidal activity against Staphylococcus aureus clinical isolate 6 after 24 hr; details: isolate 6, 24 h
Staphylococcus aureus [3] = assay: Bactericidal activity against Staphylococcus aureus clinical isolate 4 after 24 hr; details: isolate 4, 24 h
Staphylococcus aureus [4] = assay: Bactericidal activity against Staphylococcus aureus clinical isolate 5 after 24 hr; details: isolate 5, 24 h
Staphylococcus aureus [5] = assay: Bactericidal activity against Staphylococcus aureus clinical isolate 3 after 24 hr; details: isolate 3, 24 h
Staphylococcus aureus [6] = assay: Bactericidal activity against Staphylococcus aureus clinical isolate 2 after 24 hr; details: isolate 2, 24 h
Staphylococcus aureus [7] = assay: Bactericidal activity against Staphylococcus aureus clinical isolate 1 after 24 hr; details: isolate 1, 24 h
Staphylococcus aureus [8] = assay: Antibacterial activity against Staphylococcus aureus clinical isolate 10 assessed as growth inhibition after 16 to 18 hr by NCCLS agar dilution method
Staphylococcus aureus [9] = assay: Antibacterial activity against Staphylococcus aureus clinical isolate 9 assessed as growth inhibition after 16 to 18 hr by NCCLS agar dilution method
Staphylococcus aureus [10] = assay: Antibacterial activity against Staphylococcus aureus clinical isolate 8 assessed as growth inhibition after 16 to 18 hr by NCCLS agar dilution method
Staphylococcus aureus [11] = assay: Antibacterial activity against Staphylococcus aureus clinical isolate 7 assessed as growth inhibition after 16 to 18 hr by NCCLS agar dilution method
Staphylococcus aureus [12] = assay: Antibacterial activity against Staphylococcus aureus clinical isolate 6 assessed as growth inhibition after 16 to 18 hr by NCCLS agar dilution method
Staphylococcus aureus [13] = assay: Antibacterial activity against Staphylococcus aureus clinical isolate 5 assessed as growth inhibition after 16 to 18 hr by NCCLS agar dilution method
Staphylococcus aureus [14] = assay: Antibacterial activity against Staphylococcus aureus clinical isolate 4 assessed as growth inhibition after 16 to 18 hr by NCCLS agar dilution method
Staphylococcus aureus [15] = assay: Antibacterial activity against Staphylococcus aureus clinical isolate 3 assessed as growth inhibition after 16 to 18 hr by NCCLS agar dilution method
Staphylococcus aureus [16] = assay: Antibacterial activity against Staphylococcus aureus clinical isolate 2 assessed as growth inhibition after 16 to 18 hr by NCCLS agar dilution method
Staphylococcus aureus [17] = assay: Antibacterial activity against Staphylococcus aureus clinical isolate 1 assessed as growth inhibition after 16 to 18 hr by NCCLS agar dilution method
Staphylococcus aureus [18] = assay: Antibacterial activity against Staphylococcus aureus ATCC 25923 assessed as growth inhibition after 16 to 18 hr by NCCLS agar dilution method
Staphylococcus aureus [19] = assay: Bactericidal activity against Staphylococcus aureus clinical isolate 9 after 24 hr; details: isolate 9, 24 h
Staphylococcus aureus [20] = assay: Bactericidal activity against Staphylococcus aureus clinical isolate 10 after 24 hr; details: isolate 10, 24 h
Staphylococcus aureus [21] = assay: Bactericidal activity against Staphylococcus aureus clinical isolate 8 after 24 hr; details: isolate 8, 24 h
Staphylococcus aureus [22] = assay: Bactericidal activity against methicillin-resistant Staphylococcus aureus after 24 hr
Staphylococcus aureus [23] = assay: Bactericidal activity against methicillin-resistant Staphylococcus aureus isolate 5 after 24 hr; details: isolate 5, 24 h
Staphylococcus aureus [24] = assay: Bactericidal activity against methicillin-resistant Staphylococcus aureus isolate 4 after 24 hr; details: isolate 4, 24 h
Staphylococcus aureus [25] = assay: Bactericidal activity against methicillin-resistant Staphylococcus aureus isolate 3 after 24 hr; details: isolate 3, 24 h
Staphylococcus aureus [26] = assay: Bactericidal activity against methicillin-resistant Staphylococcus aureus isolate 1 after 24 hr; details: isolate 1, 24 h
Staphylococcus aureus [27] = assay: Bactericidal activity against methicillin-resistant Staphylococcus aureus isolate 2 after 24 hr; details: isolate 2, 24 h
Staphylococcus aureus [28] = assay: Antibacterial activity against methicillin-resistant Staphylococcus aureus assessed as growth inhibition after 16 to 18 hr by NCCLS agar dilution method
Staphylococcus aureus [29] = assay: Antibacterial activity against methicillin-resistant Staphylococcus aureus isolate 5 assessed as growth inhibition after 16 to 18 hr by NCCLS agar dilution method
Staphylococcus aureus [30] = assay: Antibacterial activity against methicillin-resistant Staphylococcus aureus isolate 4 assessed as growth inhibition after 16 to 18 hr by NCCLS agar dilution method
Staphylococcus aureus [31] = assay: Antibacterial activity against methicillin-resistant Staphylococcus aureus isolate 3 assessed as growth inhibition after 16 to 18 hr by NCCLS agar dilution method
Staphylococcus aureus [32] = assay: Antibacterial activity against methicillin-resistant Staphylococcus aureus isolate 2 assessed as growth inhibition after 16 to 18 hr by NCCLS agar dilution method
Staphylococcus aureus [33] = assay: Antibacterial activity against methicillin-resistant Staphylococcus aureus isolate 1 assessed as growth inhibition after 16 to 18 hr by NCCLS agar dilution method
Staphylococcus aureus [34] = assay: Bactericidal activity against Staphylococcus aureus clinical isolate after 24 hr
Staphylococcus aureus [35] = assay: Antibacterial activity against Staphylococcus aureus clinical isolate assessed as growth inhibition after 16 to 18 hr by NCCLS agar dilution method
Pseudomonas aeruginosa = assay: Antibacterial activity against Pseudomonas aeruginosa ATCC 27853 assessed as growth inhibition after 16 to 18 hr NCCLS agar dilution method
Escherichia coli = assay: Antibacterial activity against Escherichia coli ATCC 25922 assessed as growth inhibition after 16 to 18 hr NCCLS agar dilution method

Compound	MBC (Staphylococcus aureus [1]) [µg/mL]	MBC (Staphylococcus aureus [2]) [µg/mL]	MBC (Staphylococcus aureus [3]) [µg/mL]	MBC (Staphylococcus aureus [4]) [µg/mL]	MBC (Staphylococcus aureus [5]) [µg/mL]	MBC (Staphylococcus aureus [6]) [µg/mL]	MBC (Staphylococcus aureus [7]) [µg/mL]	MIC (Staphylococcus aureus [8]) [µg/mL]	MIC (Staphylococcus aureus [9]) [µg/mL]	MIC (Staphylococcus aureus [10]) [µg/mL]	MIC (Staphylococcus aureus [11]) [µg/mL]	MIC (Staphylococcus aureus [12]) [µg/mL]	MIC (Staphylococcus aureus [13]) [µg/mL]	MIC (Staphylococcus aureus [14]) [µg/mL]	MIC (Staphylococcus aureus [15]) [µg/mL]	MIC (Staphylococcus aureus [16]) [µg/mL]	MIC (Staphylococcus aureus [17]) [µg/mL]	MIC (Staphylococcus aureus [18]) [µg/mL]	MBC (Staphylococcus aureus [19]) [µg/mL]	MBC (Staphylococcus aureus [20]) [µg/mL]	other results
CCCCCCCCCC(=O)CC=O [HOUTTUYNIN]	64 (≈ 323 µM)	128 (≈ 645 µM)	128 (≈ 645 µM)	128 (≈ 645 µM)	128 (≈ 645 µM)	64 (≈ 323 µM)	64 (≈ 323 µM)	32 (≈ 161 µM)	64 (≈ 323 µM)	64 (≈ 323 µM)	64 (≈ 323 µM)	64 (≈ 323 µM)	32 (≈ 161 µM)	64 (≈ 323 µM)	64 (≈ 323 µM)	64 (≈ 323 µM)	64 (≈ 323 µM)	32 (≈ 161 µM)	256 (≈ 1290 µM)	128 (≈ 645 µM)	MBC (Staphylococcus aureus [21]): 128 µg/mL (≈ 645 µM); MBC50 (Staphylococcus aureus [22]): 64 µg/mL (≈ 323 µM); MBC90 (Staphylococcus aureus [22]): 128 µg/mL (≈ 645 µM); MBC (Staphylococcus aureus [23]): 64 µg/mL (≈ 323 µM); MBC (Staphylococcus aureus [24]): 32 µg/mL (≈ 161 µM); MBC (Staphylococcus aureus [25]): 64 µg/mL (≈ 323 µM); MBC (Staphylococcus aureus [26]): 32 µg/mL (≈ 161 µM); MBC (Staphylococcus aureus [27]): 128 µg/mL (≈ 645 µM); MIC50 (Staphylococcus aureus [28]): 16 µg/mL (≈ 80.7 µM); MIC90 (Staphylococcus aureus [28]): 16 µg/mL (≈ 80.7 µM); MIC (Staphylococcus aureus [29]): 16 µg/mL (≈ 80.7 µM); MIC (Staphylococcus aureus [30]): 16 µg/mL (≈ 80.7 µM); MIC (Staphylococcus aureus [31]): 16 µg/mL (≈ 80.7 µM); MIC (Staphylococcus aureus [32]): 16 µg/mL (≈ 80.7 µM); MIC (Staphylococcus aureus [33]): 16 µg/mL (≈ 80.7 µM); MBC50 (60.1); MBC90 (60.2) (Staphylococcus aureus [34]; read-out: MIC50): 128 µg/mL (≈ 645 µM); MBC50 (60.1); MBC90 (60.2) (Staphylococcus aureus [34]; read-out: MIC90): 128 µg/mL (≈ 645 µM); MIC50 (Staphylococcus aureus [35]): 64 µg/mL (≈ 323 µM); MIC90 (Staphylococcus aureus [35]): 64 µg/mL (≈ 323 µM)
C[C@H]1COc2c(N3CCN(C)CC3)c(F)cc3c(=O)c(C(=O)O)cn1c23.C[C@H]1COc2c(N3CCN(C)CC3)c(F)cc3c(=O)c(C(=O)O)cn1c23.O [LEVOFLOXACIN]	0.25	0.5	0.5	0.25	0.5	0.5	0.25	0.5	0.25	0.25	0.25	0.5	0.125	0.25	0.25	0.5	0.25	0.25	0.5	0.5	MIC (Pseudomonas aeruginosa): 0.5 µg/mL; MIC (Escherichia coli): 0.025 µg/mL; MBC (Staphylococcus aureus [21]): 0.25 µg/mL; MBC50 (Staphylococcus aureus [22]): >16 µg/mL; MBC90 (Staphylococcus aureus [22]): >16 µg/mL; MBC (Staphylococcus aureus [23]): > 16 µg/mL; MBC (Staphylococcus aureus [24]): > 16 µg/mL; MBC (Staphylococcus aureus [25]): > 16 µg/mL; MBC (Staphylococcus aureus [26]): > 16 µg/mL; MBC (Staphylococcus aureus [27]): > 16 µg/mL; MIC50 (Staphylococcus aureus [28]): 16 µg/mL; MIC90 (Staphylococcus aureus [28]): > 16 µg/mL; MIC (Staphylococcus aureus [29]): > 16 µg/mL; MIC (Staphylococcus aureus [30]): 16 µg/mL; MIC (Staphylococcus aureus [31]): 16 µg/mL; MIC (Staphylococcus aureus [32]): 8 µg/mL; MIC (Staphylococcus aureus [33]): 8 µg/mL; MIC50 (Staphylococcus aureus [35]): 0.25 µg/mL; MIC90 (Staphylococcus aureus [35]): 0.5 µg/mL
